Measurements: patent publication US7332489B2, “Methods and compositions of novel triazine compounds” (Reddy US Therapeutics, Inc., priority 2003, dated 2008)
Read-outs that look alike come from different tables or passages of the source.

Legend:
TNF-α induced IL-6 = experiment: TNF-α-induced IL-6 production determined by IL-6 ELISA; assay type: cell-based
How it was run: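 Human aortic endothelial cells grown to ≥90% confluence, then treated with compounds and stimuli in serum-free medium with 0.2% albumin. Secreted IL-6 in collected media measured by sandwich ELISA (2 ug/ml capture, 200 ng/ml biotinylated detection antibody, streptavidin-HRP), read at 450 nm.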

[1] = tested on: Human aortic smooth muscle cells; conditions: 24 h
Procedure: Human aortic smooth muscle cells (Clonetics) were used. Cells were grown in basal medium containing 5% fetal bovine serum supplemented with growth factors, basic fibroblast growth factor, epidermal growth factor and insulin. […] The cells were then serum starved for 24 h to induce quiescence. Fresh growth medium containing no compound or 10 μM compound was then added and further incubated for 24 h. Cell number was determined by using a cell proliferation assay kit (Celltiter96 AQueous from Promega).

G-HSA induced IL-6 = experiment: AGE-induced inflammatory response determined by IL-6 ELISA (glycated human serum albumin stimulus); assay type: cell-based; conditions: 24 h, read-out: % IL6 production compare to AGE stimulation of IL6 (100%), Compds tested @ 10 uM HAEC, IL6
Procedure: Human aortic endothelial cells (HAEC, Clonetics) were cultured according to manufacturer in growth medium (Clonetics): basal medium containing human epidermal growth factor, hydrocortisone, vascular endothelial growth factor, heparin binding growth factor-B, long R3-insulin-like growth factor-1, ascorbic acid, gentamicin/amphotericin and 5% FBS. These cell were allowed to reach at least 90% confluency before subjected to experimental treatments. Glycated human serum albumin (G-HSA) was from US Biologicals. Tumor necrosis factor α was from R&D Systems.
Endothelial cells were treated with control medium or medium containing 10 to 100 ng/ml TNF-α or 300 μg/ml glycated-HAS (treated cells or treatments) for 24 hrs, in control and compound-added duplicates, containing 10 μM compound. All treatments, compound-added and controls were carried out in serum free media containing 0.2% albumin. Media from all conditions were collected and used for IL-6 ELISA.
IL-6 ELISA was carried out using human IL-6 DuoSet ELISA development kit as described by manufacturer (R&D Systems). Mouse anti-human Il-6 was used as the capture antibody (2 ug/ml) and biotinylated goat anti-human IL-6 (200 ng/ml) was used as the detection antibody. Culture media were incubated with capture antibody (in 96 well) for 2 h at room temperature. […] Color development was read at 450 nm in a Microplate reader.

cells = experiment: Cytotoxicity/Lactate Dehydrogenase assay; assay type: cell-based; conditions: toxic or cause cell death; concentrations (uM) given
Procedure: An appropriate number of cells are plated in four 96-well plates, one plate for “day 0” and three plates for days 1-3. Cells are treated with at least one compound of the present invention in varying concentrations with and without the apoptosis inducer cisplatin (2 μM) (“+cis” or “-cis”). Unteated cells are also assayed with and without cisplatin. After transfection, the plates are incubated at 37° C. overnight.
An appropriate number of cells are plated in four 96-well plates, one plate for “day 0” and three plates for days 1-3. Cells are treated with at least one compound of the present invention in varying concentrations. The negative control cells have normal media conditions, a duplicate set of wells is treated with the composition in which the compound is provided, but there is no added compound and the positive control cells are treated with the apoptosis inducer cisplatin (2 μM). All of the cells are transfected with a vector having a promoter that is responsive to apoptosis conditions. When apoptosis occurs, the promoter is turned on and the lactic dehydrogenase gene is activated and the enzyme protein is made and active. Activity is easily detected with a color change. After transfection, the plates are incubated at 37° C. overnight.
About 8 mls of warmed alpha MEM LDH lysis buffer (2% Triton X100) and about 8 mls of culture media (1/2 dilution) are combined. Two 96-well v-bottom plates are prepared, one labeled “lysis” and one labeled “supernatant.” To lyse the cells, about 200 μl Alpha MEM lysis buffer (diluted 1/2) is added to one test plate from which the supernatant has been removed and added to the plate labeled supernatant. After mixing, about 200 μl of lysed cells are transferred to the lysis plate. Both the lysis and supernatant plates are centrifuged at about 1600 rpm for about 10 min. After centrifugation, about 100 μl of both the supernatant or lysate is transferred to corresponding 96-well flat-bottomed plates.
The assay for cytotoxicity uses the Cytotoxicity Detection Kit (LDH) from Roche Diagnostics Corp. (Indianapolis, Ind.). Using the directions provided, the dye solution is mixed and added each well of the lysate and supernatant plate and incubated for up to 20-25 min at 15-25° C. in the dark.

endothelial cells = experiment: Toxicity to endothelial cells when AGE stimulated; assay type: cell-based
Procedure: In general, to determine if there is cytotoxic activity associated with a compound, cells of a particular type, in a growing stage or a quiescient stage, are treated with the compound of interest. Various parameters of cell death or cessation are used to measure the effects of the compound. For example, the amount of nucleic acid or protein synthesis can be measured or visual observation of the state of the cells, such as release from the substrate, can be used to measure the state of the cells.
All treatments, compound-added and controls were carried out in serum free media containing 0.2% albumin. Media from all conditions were collected and used for IL-6 ELISA.

CN1CCC(N(C)c2nc(Nc3ccc(OCc4ccccc4)c(Cl)c3)nc(NC3CCCCCC3)n2)CC1
Inflammation Data, activity in words at 1 uM (TNF-α induced IL-6): Not active
Inflammation Data, activity in words at 5 uM (TNF-α induced IL-6; 5 uM): Not active
Inflammation Data, cell death at 5 uM (TNF-α induced IL-6; 5 uM): 30%
Inflammation Data, cell death at 10 uM (TNF-α induced IL-6; 10 uM): totaldeath
Proliferation Data, cell death [1]: no celldeath
Proliferation Data, cell morphology (rounding, blunting, morphology change) [1]: cell morphologychange at 5 & 10 uM

CN(c1nc(Nc2ccc(OCc3ccccc3)c(Cl)c2)nc(NC2CCCCCC2)n1)C1CCNCC1
Inflammation Data, activity in words at 1 uM (TNF-α induced IL-6): not active
Inflammation Data, cell death at 5 uM (TNF-α induced IL-6; 5 uM): 50%
Inflammation Data, cell death at 10 uM (TNF-α induced IL-6; 10 uM): total cell death
Proliferation Data, cell death [1]: celldeath at 10 uM
Proliferation Data, cell morphology (rounding, blunting, morphology change) [1]: cell morphologychange at 7.5 uM

CCN1CCCC1CNc1nc(Nc2scc(C)c2C(N)=O)nc(NC2CCCCCC2)n1 (centres unmarked) [Compound 39, 2-[(4-(cycloheptylamino)-6-{[(1-ethyl-2-pyrrolidinyl)methyl]amino}-1,3,5-triazin-2-yl)-amino]-4-methyl-3-thiophenecarboxamide]
activity at 10 µM (TNF-α induced IL-6; Homo sapiens, 24 h, Table 5, second part, column 1, class = % of control IL6 production, read-out: Inhibition of TNF-induced IL6, production): 25 to 50%
activity at 10 µM (G-HSA induced IL-6; HAEC, 10 uM compound, AGE stimulation = 100%): 26%

COc1ccc(Nc2nc(Nc3ccc(OC)c(Cl)c3)nc(N(C)C3CCN(C)CC3)n2)cc1Cl [Compound 121, N,N′-Bis-(3-chloro-4-methoxy-phenyl)-N″-methyl-N″-(1-methyl-piperidin-4-yl)-[1,3,5]triazine-2,4,6-triamine]
% IL6 production compare to TNF stimulation of IL6 (100%), HAEC, IL6, @ 5 uM (TNF-α induced IL-6; HAEC, TNF stimulated, compound 5 uM (bracketed value)): [50 @ 5 uM, but some %
% IL6 production compare to TNF stimulation of IL6 (100%), Compds tested @ 10 uM HAEC, IL6 (TNF-α induced IL-6; HAEC, TNF stimulated, compound 10 uM): total cell death @ 10 uM
toxicity @ 5 uM (TNF-α induced IL-6; human, 24 h, 5 µM): toxicity (~20%)]
Toxicity (cells): Toxic by toxicityassay at 0.75 uM.Starts blunting by1 uM and rounding by5 uM
Toxic (AGE-treated) (endothelial cells): toxic

CN1CCC(N(C)c2nc(Nc3ccc4ccccc4c3)nc(NC3CC3)n2)CC1 [Compound 180, N-Cyclopropyl-N′-methyl-N′-(1-methyl-piperidin-4-yl)-N″-naphthalen-2-yl-[1,3,5]tri-azine-2,4,6-triamine]
inhibition at 10 µM (TNF-α induced IL-6; Homo sapiens, 24 h, read-out: Inhibition of TNF-induced IL6 production, Table 7, first part): 85 to 100%
inhibition at 10 µM (TNF-α induced IL-6; Homo sapiens, 24 h, read-out: Inhibition of TNF-induced IL6 production, Table 7, second part, column 1): 50 to 65%
activity at 10 µM (G-HSA induced IL-6): 5%

CN1CCC(N(C)c2nc(Nc3ccc(O)c(Cl)c3)nc(NC3CCCCCC3)n2)CC1 [drawing 1613]
Inflammation Data, cell death at 10 uM (TNF-α induced IL-6; human, 24 h, 10 µM): total cell death
Proliferation Data, cell morphology (rounding, blunting, morphology change) [1]: cell bluntingat 3 to 10 uM
